Experimental data: patent US20100099640A1, “TISSUE DEGENERATION PROTECTION” (priority 2007, published 2010)

What was measured:
3T3-L1 adipocytes = test: Triglyceride (Oil red O) accumulation during differentiation of 3T3-L1 adipocytes; format: cell-based, mouse; details: for triglyceride accumulation in adipocytes: 50-micromolar (lowest concentration), added during the 7-days differentiation process; for lipid deposition (triglyceride accumulation) in adipocytes: 200-micromolar (4x higher concentration), added during differentiation, steviol dissolved with DMSO
Method: 3T3-L1 mouse preadipocytes were purchased from the American Type Culture Collection (ATCC). They are cultivated in DHG medium (Dulbecco's modified Eagle's medium+High Glucose 4.5 g/l, GibcoBRL) supplemented with 10% FCS (foetal calf serum, GibcoBRL) and incubated a 37 C+5% CO2 incubator in a humidified atmosphere. For pre-adipocyte differentiation, 3T3-L1 cells were seeded at 50% confluence 3 days before the beginning of the differentiation programme. Confluent cell monolayers (day 0) are switched for 48 h to media containing the adipogenic cocktail: “DHG-L1” medium (DHG that contains 1.5 g/l NaHCO3) supplemented with 10% FCS, 5 μg/ml insulin, 300 μM dibutyryl-cyclicAMP (dbcAMP) and 1 μM dexamethasone. The cells were then refeeded every other day with DHG-L1 containing 10% FCS and 5 μg/ml insulin. At the end, 80-90% of cells were differentiated. […]
To characterize the state of (de)differentiation obtained in the presence of the molecules of interest, triglycerides present in the cells were stained with Oil red O (a dye of the neutral lipids). The absorbance of cell monolayers at 490 nm was measured in a spectrophotometer.

[1] = cited from earlier work
[2] = system: mouse pancreatic islets, β-cell line INS-1; details: direct action on β-cells; cited from earlier work
[3] = system: everted gastrointestinal sacs of rats and Caco-2 cell layers; details: free steviol formed in the colon; cited from earlier work
[4] = system: atherosclerotic plaques of DKO mice; test: Atherosclerosis: morphometric and immunohistochemical analysis of aortic root cross sections of DKO mice; format: in vivo, mouse; details: 12 weeks
Method: Homozygous LDL-receptor-knockout mice (LDLR^(−/−)), heterozygous ob/+, and C57BL6 mice were purchased from Jackson Laboratory, Bar Harbor, Me. LDLR^(−/−) mice were backcrossed into a C57BL6 background to the 10th generation. To obtain DKO mice with combined leptin deficiency (ob/ob) and LDL-receptor deficiency, LDLR^(−/−) and ob/+ mice were crossed. All offspring were genotyped by polymerase chain reaction (PCR) techniques. All mice were housed at 22° C. on a fixed 12/12-hour light/dark cycle. Experimental procedures in animals were performed in accordance with protocols approved by the Institutional Animal Care and Research Advisory Committee. All mice were fed standard chow containing 4% fat (Pavan Service). Food intake was ≈5.7 g/d. Mice (about 50 g) were treated with stevioside (N=14; 10 mg/kg), steviol (N=9; 5 mg/kg) or placebo (N=17) for 12 weeks between 12 and 24 weeks of age. Stevioside (Molecular weight: 804) was dissolved in water (1 mg/ml) and 500 μl of the solution was administered orally. Steviol (Molecular weight: 318) was dissolved in water containing 6% NaHCO3 (1 mg/ml) and 250 μl of the solution was administered orally.
The extent of atherosclerosis was determined by analysis of cross sections from the aortic root. Approximately ten 7-μm frozen sections per staining per animal were used for morphometric and immunohistochemical analysis. Total plaque areas were measured on hematoxylin and eosin stained sections. Lipids were stained with oil-red O, and macrophage areas were stained with an antibody against mouse Mac-3 antigen (Pharmingen), and oxidized LDL with the monoclonal antibody 4E6. Blinded analysis of positive immunostained sections was performed with the Quantimet600 image analyzer (Leica).

[5] = steviol 5 mg/kg vs stevioside 10 mg/kg orally
[6] = stevioside 10 mg/kg or steviol 5 mg/kg orally

| Molecule | triglyceride accumulation in adipocytes (3T3-L1 adipocytes) | transformation by human microsomes relative to rat microsomes ([1]; human vs rat liver microsomes) | transformation of steviol by human microsomes ([1]; in vitro incubation with human liver microsomes) | insulin secretion [2] | absorption of free steviol [3] | lipid deposition (triglyceride accumulation) in adipocytes (3T3-L1 adipocytes) | SMC content of plaques, compared to stevioside [4, 5] | plaque lipids, compared to stevioside [4, 5] | lipid deposition in plaques [4, 6] | macrophage deposition in plaques [4, 6] | oxLDL deposition in plaques [4, 6] | plaque volume [4, 6] | smooth muscle cell (SMC)-to-macrophage ratio (proxy for plaque stability) [4, 6] |
| --- | --- | --- | --- | --- | --- | --- | --- | --- | --- | --- | --- | --- | --- |
| C=C1C[C@@]23CC[C@H]4[C@@](C)(CCC[C@@]4(C)C(=O)OC4OC(C(=O)O)C(O)C(O)C4O)[C@@H]2CC[C@]1(O)C3 (stereo partly drawn) [steviol glucuronide, steviol-19-O-β-D-glucuronide] | inhibited significantly | – | – | – | – | – | – | – | – | – | – | – | – |
| C=C1C[C@@]23CC[C@H]4[C@@](C)(CCC[C@@]4(C)C(=O)O)[C@@H]2CC[C@]1(O)C3 [steviol, Kaur-16-en-18-oic acid, 13-hydroxy-, (4α)-] | did not significantly reduce | about 4 times lower | very low | stimulation of insulin secretion | easily absorbed | did not have an effect | increased somewhat more | decreased somewhat more | reducing | reducing | reducing | lowered | increased |
| Kaur-16-en-18-oic acid, 13-[(O-b-D-glucopyranosyl-(1→2)-O-[b-D-glucopyranosyl-(1→3)]-b-D-glucopyranosyl)oxy]-, b-D-glucopyranosyl ester, (4a)- [rebaudioside] | did not significantly reduce | – | – | – | – | inhibited | – | – | – | – | – | – | – |
